Patent publication US20180193336A1, “SPRAY DRY FORMULATIONS” (Pulmokine, Inc., priority 2013, published 2018)
Where “and” joins values, the source holds several entries; their conditions need not be identical. Equal entries are not always repeated. Where two headings read alike, the source gives them in different places. Marks after values point to notes of the source that are not given here.

Assays:
[1] = tested on: PDGFAA stimulated AKT phosphorylation; assay: In cell Western, PDGFAA stimulated AKT phosphorylation in human fetal lung fibroblasts; assay type: cell-based; details: for IC50: Fibroblast
Method: HLFs were maintained in subculture at no more than 6 passages in DMEM with 5% FBS and 4 mM Glutamax at 37° C., 5% CO2. HLFs were plated and grown to 70-80% confluence in 96 well plates then serum-starved for 48 hours. […] Antibodies were detected using IRDye 680LT goat anti-mouse IgG and IRDye 800 W goat α-rabbit IgG conjugated antibodies. After washing, the signal was quantified using an Odyssey Infrared Imaging System (LI-COR). Phosphoprotein signal (800 nm) was normalized to total protein signal (700 nm) acquired from each well and experimental duplicates on same plate were averaged and reported.

[2] = tested on: PDGFAA stimulated phosphorylation of ERK1 and ERK2; assay: PDGFAA stimulated phosphorylation of ERK1 and ERK2 in human fetal lung fibroblasts; assay type: cell-based; details: 1 uM; PDGFAA 10 ng/ml
Text: Data shown are mean±SEM. […] PK10453=structure 2; PK10571=structure 2a. Platelet derived growth factor receptor alpha=PDGFR-alpha=PDGFR-α=PDGF receptor alpha=PDGF alpha receptor. Platelet derived growth factor receptor beta=PDGFR-beta=PDGFRβ=PDGF receptor beta=PDGF beta receptor.

[3] = tested on: rat MCT+PN model; assay: Telemetry of pulmonary artery pressure in rat MCT+PN model; assay type: in vivo; details: for PA systolic pressure: separate MCT+PN telemetry study
Method: Pneumonectomy and implantation of a TRM53P telemetry monitor in the pulmonary artery (Telemetry Research, New Zealand and ADInstruments, Colorado) was carried out in rats. Two weeks after MCT, PK10453 (Structure 2) was administered three times daily for 1 week. […] The two groups underwent 4 min exposures of either the vehicle control or PK10453 (Structure 2). Sampling of PA pressure was performed 5 min before each morning dose in ambulatory animals in room air (estimated atmospheric pressure 716 mm Hg based on elevation of animal facility). […] Telemetry data was obtained for 10 min daily before each morning dose for this protocol.

[4] = tested on: rat MCT+PN model; assay: RV pressure, PV loops and RV hypertrophy in rat MCT+PN model; assay type: in vivo; details: for RV systolic pressure: 14 days
Method: In a separate cohort of animals, the MCT+PN model was developed as described above, and PK10453 (Structure 2) was then administered for 4 or 8 min three times a day to the drug treated group. The vehicle control group underwent 4 min exposures three times a day. Pressure Volume (PV) loops were obtained with an admittance system (Scisense, Inc.) after 14 days of treatment, while rats were under general anesthesia with isoflurane and 100% FiO2. Also, or in the alternative, RV pressures were obtained in each group after 14 days of treatment. In a subset of each group, pressure Volume (PV) loops were obtained with an admittance system (high fidelity catheter FTE1918B, Scisense, Inc.) after 14 days of treatment. After induction of general anesthesia and intubation via tracheostomy, the rats were placed on a pressure controlled ventilator (TOPOVENT). General anesthesia consisted of isoflurane and 100% F1O2 with peak inspiratory pressure set at 18 cm, and PEEP 5 cm H2O. A left thoracotomy was performed with admittance catheter in the RV via the RV outflow tract.
At the end of the study, the heart and lungs were removed from ventilated animals under general anesthesia. Heparinized saline was infused under pressure through the main pulmonary artery. The right upper lobe was immediately tied off and placed in liquid nitrogen for Western blot and NanoPro 100 assay analysis. The heart was removed, and the RV free wall, interventricular septum and LV free wall dissected and weighed. Buffered formalin (10%) was infused under pressure both through the pulmonary artery and the trachea. Morphometric analysis was performed on H&E stained formalin fixed tissue sectioned at 8 μm. The media area and lumen area of pulmonary arterioles were measured with Image J software by a technician blinded to treatment group. Measurements were made on 20 pulmonary arterioles per section. The ratio of the lumen area to the total media area was determined. This ratio normalizes the variation in total pulmonary arteriole area. In addition, occlusive analysis was performed in the monocrotaline plus pneumonectomy study (specifically efficacy study 5) according to the method of Homma et al., “Involvement of RhoA/Rho kinase signaling in protection against monocrotaline-induced pulmonary hypertension in pneumonectomized rats by dehydroepiandrosterone.” Am J Physiol Lung Cell Mol Physiol. Vol. 295:L71-8 (2008). Briefly, pre-capillary arterioles were assigned grade 0 for no evidence of neointimal lesions, grade 1 for less than 50% luminal occlusion, and grade 2 for greater than 50% occlusion. Masson Trichrome stains were performed on lung sections from the MCT+PN model. […]

[5] = tested on: rat MCT+PN model; assay: Pulmonary arteriole morphometry and occlusion analysis in rat MCT+PN model; assay type: in vivo
Text: At the end of the study, the heart and lungs were removed from ventilated animals under general anesthesia. Heparinized saline was infused under pressure through the main pulmonary artery. The right upper lobe was immediately tied off and placed in liquid nitrogen for Western blot and NanoPro 100 assay analysis. The heart was removed, and the RV free wall, interventricular septum and LV free wall dissected and weighed. Buffered formalin (10%) was infused under pressure both through the pulmonary artery and the trachea. Morphometric analysis was performed on H&E stained formalin fixed tissue sectioned at 8 μm. The media area and lumen area of pulmonary arterioles were measured with Image J software by a technician blinded to treatment group. Measurements were made on 20 pulmonary arterioles per section. The ratio of the lumen area to the total media area was determined. This ratio normalizes the variation in total pulmonary arteriole area. In addition, occlusive analysis was performed in the monocrotaline plus pneumonectomy study (specifically efficacy study 5) according to the method of Homma et al., “Involvement of RhoA/Rho kinase signaling in protection against monocrotaline-induced pulmonary hypertension in pneumonectomized rats by dehydroepiandrosterone.” Am J Physiol Lung Cell Mol Physiol. Vol. 295:L71-8 (2008). Briefly, pre-capillary arterioles were assigned grade 0 for no evidence of neointimal lesions, grade 1 for less than 50% luminal occlusion, and grade 2 for greater than 50% occlusion. Masson Trichrome stains were performed on lung sections from the MCT+PN model.

[6] = tested on: rat MCT+PN model; assay: Two-chamber plethysmography, PK10453 in rat MCT+PN model; assay type: in vivo; details: for MV (minute ventilation) / PEF (peak expiratory flow) / PIF (peak inspiratory flow) / SRaw (airway resistance) / TV (tidal volume) / f (breathing frequency): MCT+PN, mean
Method: Plethysmography was performed with an EMKA dual chamber plethysmograph and IOX software. Parameters measured included breathing frequency, tidal volume, minute ventilation, peak inspiratory and expiratory flow, and airway resistance (SRaw). Animals were acclimatized to the plethysmograph for three days prior to first data acquisition. Measurements were made prior to the first dose of drug and at the end of the study.

[7] = tested on: rat monocrotaline plus pneumonectomy model; assay: Trichrome stain of lung sections, rat monocrotaline plus pneumonectomy model; assay type: in vivo; details: inhaled; compared to vehicle treated animal; FIG. 42
Text: At the end of the study, the heart and lungs were removed from ventilated animals under general anesthesia. Heparinized saline was infused under pressure through the main pulmonary artery. The right upper lobe was immediately tied off and placed in liquid nitrogen for Western blot and NanoPro 100 assay analysis. The heart was removed, and the RV free wall, interventricular septum and LV free wall dissected and weighed. Buffered formalin (10%) was infused under pressure both through the pulmonary artery and the trachea. Morphometric analysis was performed on H&E stained formalin fixed tissue sectioned at 8 μm. The media area and lumen area of pulmonary arterioles were measured with Image J software by a technician blinded to treatment group. Measurements were made on 20 pulmonary arterioles per section. The ratio of the lumen area to the total media area was determined. This ratio normalizes the variation in total pulmonary arteriole area. In addition, occlusive analysis was performed in the monocrotaline plus pneumonectomy study (specifically efficacy study 5) according to the method of Homma et al., “Involvement of RhoA/Rho kinase signaling in protection against monocrotaline-induced pulmonary hypertension in pneumonectomized rats by dehydroepiandrosterone.” Am J Physiol Lung Cell Mol Physiol. Vol. 295:L71-8 (2008). […]

Compound: COc1cc(-c2cncc(N[C@@H](C)c3cccc(NC(=O)c4cncc(C)c4)c3)n2)ccc1O [PK10453, (S)—N-(3-(1-((6-(4-hydroxy-β-methoxyphenyl)pyrazin-2yl)amino)ethyl)phenyl)-5-methylnicotinamide]
- IC50 for PDGFAA stimulated phosphorylation of AKT, PK10453 compared with imatinib [1]: not significantly different
- IC50 ([1]; legend of FIG. 2 PANEL A, read-out: IC50 for PDGFAA stimulation of pAKT(S473)): 300 to 600 nM
- IC50 ([1]; legend of FIG. 2 PANEL B, read-out: IC50 for PDGFAA stimulation of pAKT(T308)): 300 to 600 nM
- decrease of PDGF AA stimulated ppERK1 and ppERK2 formation [2]: equally effective
- efficacy by inhalation in the MCT+PN model ([3]; rat MCT+PN): effective in lowering pulmonary pressures
- PA systolic pressure ([3]; after five days of treatment): 47.2±3.0 mm Hg
- PA systolic pressure ([3]; treatment day 9): 50.5±7 mm Hg
- (RV+IVS)/LV ratio ([4]; D4): 0.62±0.04
- RV systolic pressure ([4]; D4, 4 min three times a day): 40.4±2.7 mm Hg and 40.4+2.7 mm Hg
- (RV+IVS)/LV ratio ([4]; D8): 0.68±0.05
- RV systolic pressure ([4]; D8, 8 min three times a day): 43±3.0 mm Hg and 43.0+3.0 mm Hg
- Grade 2 occlusion lesions ([5]; D4): 28.5±4.2%
- lumen area to media area ratio (L/M) ([5]; D4, FIG. 7 PANEL C): 0.33±0.06
- Grade 2 occlusion lesions ([5]; D8): 11.4±4.1%
- lumen area to media area ratio (L/M) ([5]; D8, FIG. 7 PANEL C): 0.72±0.05
- lumen area to media area ratio (L/M) ([5]; higher dose D8, FIG. 9): 1.17±0.07
- lumen area to media area ratio (L/M) ([5]; lower dose D4, FIG. 9): 0.75±0.14
- MV (minute ventilation) ([6]; D4, Day 1): 223.24 mL/min
- PEF (peak expiratory flow) ([6]; D4, Day 1): 11.04
- PIF (peak inspiratory flow) ([6]; D4, Day 1): 9.82
- SRaw (airway resistance) ([6]; D4, Day 1): 39.73
- TV (tidal volume) ([6]; D4, Day 1): 1.00 mL
- f (breathing frequency) ([6]; D4, Day 1): 224.68 breaths per minute
- MV (minute ventilation) ([6]; D4, Day 15): 176.12§ mL/min
- PEF (peak expiratory flow) ([6]; D4, Day 15): 9.33*
- PIF (peak inspiratory flow) ([6]; D4, Day 15): 7.82*
- SRaw (airway resistance) ([6]; D4, Day 15): 33.09
- TV (tidal volume) ([6]; D4, Day 15): 0.85 mL
- f (breathing frequency) ([6]; D4, Day 15): 217.12 breaths per minute
- MV (minute ventilation) ([6]; D8, Day 1): 174.68 mL/min
- PEF (peak expiratory flow) ([6]; D8, Day 1): 9.43
- PIF (peak inspiratory flow) ([6]; D8, Day 1): 8.54
- SRaw (airway resistance) ([6]; D8, Day 1): 36.01
- TV (tidal volume) ([6]; D8, Day 1): 0.74 mL
- f (breathing frequency) ([6]; D8, Day 1): 259.13 breaths per minute
- MV (minute ventilation) ([6]; D8, Day 15): 128.49 mL/min
- PEF (peak expiratory flow) ([6]; D8, Day 15): 6.64
- PIF (peak inspiratory flow) ([6]; D8, Day 15): 6.06
- SRaw (airway resistance) ([6]; D8, Day 15): 49.26
- TV (tidal volume) ([6]; D8, Day 15): 0.63 mL
- f (breathing frequency) ([6]; D8, Day 15): 232.11 breaths per minute
- effect on lung function ([6]; inhaled, 2-wk course): did not adversely affect lung function
- collagen deposition in lung sections (trichrome stain) [7]: less collagen deposition
